Results: US20240117431A1, “STEM-CELL BASED BIOMARKER DISCOVERY” (THE REGENTS OF THE UNIVERSITY OF CALIFORNIA, priority 2020, published 2024)
Entries after “also recorded” stand apart in the source; their conditions may differ.

How the values were obtained:
[1] = biological target: T1, uracil monophosphate synthetase (UMPS) overexpressed in HEK cells (Homo sapiens, UniProt P11172); assay: RNA incorporation with overexpression of UMPS, dot blot; format: cell-based; conditions: 1 mM, 24 hours, FIG. 12
T1 construct: expressed in transfected cells; host or cells: HEK cells
T1 sequence (P11172 1-480): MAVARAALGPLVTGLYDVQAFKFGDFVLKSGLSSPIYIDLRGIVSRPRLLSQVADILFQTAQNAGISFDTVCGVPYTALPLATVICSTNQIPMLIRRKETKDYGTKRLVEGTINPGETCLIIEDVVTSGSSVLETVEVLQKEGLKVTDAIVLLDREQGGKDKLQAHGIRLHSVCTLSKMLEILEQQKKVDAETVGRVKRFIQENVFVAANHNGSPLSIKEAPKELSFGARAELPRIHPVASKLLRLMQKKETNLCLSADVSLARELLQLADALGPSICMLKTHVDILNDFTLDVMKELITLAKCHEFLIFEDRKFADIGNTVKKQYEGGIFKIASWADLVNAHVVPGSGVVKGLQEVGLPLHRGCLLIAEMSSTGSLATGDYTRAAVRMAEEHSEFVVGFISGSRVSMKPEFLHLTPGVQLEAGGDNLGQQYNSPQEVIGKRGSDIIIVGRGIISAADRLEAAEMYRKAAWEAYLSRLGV
Procedure: Analogs were incubated for 24 hours at 1 mM concentration in HEK cells. RNA was extracted and biotinylated using MTSEA-Biotin, followed by dot-blot analysis. Strep-HRP=Streptavidin conjugated Horseradish peroxidase. MeBI=methylene blue staining serving as loading control.

[2] = biological target: T2, wild-type (WT) TgUPRT in HEK cells (Toxoplasma gondii, UniProt Q26998); assay: In-cell RNA incorporation by wild-type TgUPRT, streptavidin dot blot; format: cell-based; conditions: wild-type TgUPRT active site
T2 construct: 6xHis; expressed in transfected cells; host or cells: HEK293 (HEK293T)
Procedure: (§1) Transfection, labeling of cellular RNA and RNA isolation: After 48h seeding, HEK293 cells were transfected with 2.5 μg of TgUPRT WT or mutant plasmids (pKN-CMV-TgUPRT-WT or -Mutt to Mut17) per 5 cm plate using JetPrime Transfection reagent (Polyplus Transfection, France). At 40h post-transfection, cells were incubated with a final concentration of 200 μM at <1% DMSO from 400 mM stock of uracil analogs (5EU, 5VU, 5AU) or 200 mM SAMU stock for 5 h. For time course study, HEK cells were treated with 200 μM uracil analogs for 0 h, 0.5, 1, 3, 5, 12 and 24 hours. For titrating uracil analog concentration experiments, HEK cells were treated with 0 (DMSO), 50, 100, 200, 500 μM or 1 mM uracil analog for 5h. Treated HEK cells were subjected to total RNA extraction using 1 mL Trizol Reagent (Invitrogen) following the manufacturer instructions.
(§2) Biotinylation via CuAAC and IEDDA: Cu-mediated Azide-Alkyne cycloaddition (CuAAC) click reactions were performed in 50 μL reaction at 22° C. on a shaker for 30 min with click reaction cocktail containing 15 μg of total RNA, 1 mM biotin alkyne or biotin azide, fresh 4.6 mM THPTA to a final concentration of 1 mM, and fresh 10.6 mM sodium ascorbate (NaAsc) at final concentration of 1.77 mM, and 12 mM CuSO4 at final concentration of 200 μM in biotinylation reaction buffer (10 mM TrisHCI, 1 mM EDTA, pH7.4). The biotinylated RNA was purified using RNA clean & Concentrator-5 kit (Zymo Research, Cat #R1013) according to the manufacturer instructions and eluted in 21 μL of nuclease free water.
(§3) Inverse electron demand [4+2] Diels-Alder cycloaddition (IEDDA) click reactions were performed in 50 μL at 37° C. or 22° C. (RT) for 3h on mixer at 500 rpm containing 10-15 μg of total RNA, 1 mM final concentration of biotin-benzyl tetrazine (Sigma Aldrich, Cat #793329-5MG) in nuclease free water. Clicked total RNA was purified using RNA clean & Concentrator-5 kit (Zymo Research, Cat #R1013) according to the manufacturer instructions, and RNA was eluted in 21 μL of nuclease free water.
HRP-streptavidin dot blot analysis: All gel reagents were from Bio-Rad. […]

(−)TgUPRT HEK cells = assay: Background incorporation of uracil analogs into RNA, streptavidin-HRP dot blot; format: cell-based; conditions: 1 mM, mimics in vivo applications, FIG. 4
Procedure: as §1, §2, §3
HRP-streptavidin dot blot analysis: All gel reagents were from Bio-Rad. For dot blot analysis, 2 μg of clicked total RNA was applied onto Hybond-N+ membrane (GE Healthcare) as individual dots and UV-crosslinked (254 nm) to a membrane (Stratalinker UV crosslinker). Membranes were blocked in blocking buffer (0.12 M NaCl, 0.016 M Na2HPO4, 0.008 M NaH2PO4, 0.17 M SDS) and followed by incubation with high sensitivity streptavidin-HRP (Fisher Scientific, Cat #: P121130) at 1:5000 dilution in blocking buffer for 5 minutes. The membrane was washed twice in a Wash A buffer (1:10 dilution of blocking buffer) and twice in Wash B buffer (Tris-saline buffer). […]

mutants TgUPRT = assay: Phosphoribosyltransferase activity with recombinant TgUPRT mutants; format: biochemical, Toxoplasma gondii; conditions: five recombinant TgUPRT mutants, FIG. 9A
Procedure: Enzyme activity assay: The standard activity assay was performed by incubating 10 μL of free extract or 0.5 μg of pure His-tag enzyme with 1 mM Phosphoribosyl pyrophosphate (PRPP), 1 mM uracil, 5 mM MgCl2 in 50 mM PBS buffer pH 7.4 in a final volume of 80 μL. The reaction mixture was incubated at 37° C. for 2-5 min (300 rpm). Enzyme was inactivated by adding 80 μL of cold methanol in ice-bath and heating for 5 min at 100° C. After centrifugation at 9000×g for 5 min, samples were half-diluted with water and the NMP production was analysed by HPLC to quantitatively measure the reaction products as described below in the analytical methods. All determinations were carried out in triplicate assuming Michaelis-Menten conditions, and the maximum error was below 5%. In such conditions, one international activity unit (IU) was defined as the amount of enzyme producing 1 μmol/min of UMP under the assay conditions.
Substrate specificity studies Enzymatic synthesis of the different pyrimidine nucleoside monophosphate (NMP) derivatives was carried out by incubating 0.5 μg of pure His-tag enzyme with 1 mM PRPP, 1 mM pyrimidine base and 5 mM MgCl2 in 50 mM PBS buffer pH 7.4 (1.6-3.2% v/v DSMO). The experiments were performed according to the standard assay. Subsequently, the reaction mixture was processed as described above and the NMP production was analyzed by HPLC.
Analytical methods: The production of NMPs was quantitatively measured with an ACE EXCEL 5 μm CN-ES 250×4.6 mm equilibrated with 100% trimethyl ammonium acetate at a flow rate of 0.8 mL/min. Retention times for the reference bases and NMPs (hereafter abbreviated according to the recommendations of the IUPAC-IUB Commission on Biochemical Nomenclature) were as follows: uracil (Ura), 4.7 min; 5-azido uracil (5-AUra). […]
Following these exciting observations, a more quantitative approach to examined for differences between enzyme mutants and their enzyme kinetics with the analogs. […] Each purified enzyme was incubated with the different substrates and phosphoribosyltransferase activity was measured (FIG. 9A).

UPRT(+)-microglia brains = assay: In vivo labeling of brain RNA in mice transplanted with UPRT-expressing human microglia, biotin dot blot; conditions: IP close to 150 mg/kg, 24-48 hours, FIG. 14
Procedure: 5-vinyl-uracil (Alfa Aesar #4437903) was prepared in sterile conditions at 4 times the concentration in 100% DMSO, then diluted to 25% DMSO by adding corn oil to a final concentration of 500 mM. The mixture was heated to 37° C. for […] until homogenous. Mice are weighed before intraperitoneal injection (IP) injection to ensure close to 150 mg/kg are injected per treatment. For an (˜20 g) adult mouse typically 60-70 μl are IP injected per treatment. Mice are monitored for signs of distress. After 24-48 hours of treatment, mice were sacrificed and brains were immediately placed into 2 ml of RNAlater and left in 4° C. for 3-5 days. After removing brains from RNAlater, they were homogenized with RNAse-free 1.4 mm steel beads (Next Advance SSB14B-RNA) for 60 seconds and centrifuged at 4° C. for 5 min, maximum speed to separate the fatty layer. The bottom layer is collected, homogenized with 200 ul chloroform and centrifuged for 20 minutes, at 4° C. The aqueous layer is collected and 500 ul isopropanol added. After centrifugation for 30 minutes 4° C., the RNA pellet is washed in 70% Ethanol twice. After removing ethanol, the RNA pellet is resuspended in nuclease-free water and nanodrop to determine the concentration. From each sample, 15 μg of RNA was subjected in tetrazine-biotin ligation at 37° C., 500 RPM for 3 hours. The biotinylated RNA was purified with RNA Zymo Clean and Concentrator #5 and eluted with nuclease-free water. 2 μg of purified RNA was spotted onto a N+ Hybond membrane and UV-crosslinked at 254 nm (120,000 uJ). Membrane is blocked in blocking buffer (0.12 M NaCl, 0.016 M Na2HPO4, 0.008 M NaH2PO4, 0.17 M SDS) and followed by incubation with high sensitivity streptavidin-HRP (Fisher Scientific, Cat #: P121130) at 1:5000 dilution in blocking buffer for 5 minutes. The membrane was washed twice in a Wash A buffer (1:10 dilution of blocking buffer) and twice in Wash B buffer (Tris-saline buffer). It was then incubated for 1-5 min. in ECL Chemiluminescent Substrate (Fisher Scientific, Cat #: P132106) and imaged on a ChemiDoc MP imaging system (Bio-Rad). […]

T2 sequence (Q26998 whole entry): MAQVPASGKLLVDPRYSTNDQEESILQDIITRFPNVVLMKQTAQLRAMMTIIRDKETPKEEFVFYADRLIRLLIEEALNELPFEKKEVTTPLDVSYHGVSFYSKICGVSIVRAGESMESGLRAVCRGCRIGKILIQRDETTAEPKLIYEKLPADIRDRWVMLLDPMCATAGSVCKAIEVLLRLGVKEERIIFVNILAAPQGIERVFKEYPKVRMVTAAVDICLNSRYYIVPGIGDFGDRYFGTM

O=c1[nH]ccc(=S)[nH]1 [4-thiouracil, reference compound]
incorporation into cellular RNA with UMPS overexpression [1]: higher amount | TgUPRT-dependent incorporation into cellular RNA [2]: has the ability to be incorporated into cellular RNA

[N-]=[N+]=Nc1c[nH]c(=O)[nH]c1=O [compound 4, 5-Azidopyrimidine-2,4(1H,3H)-dione]
incorporation into RNA at higher concentration ((−)TgUPRT HEK cells): higher incorporation

O=c1cc[nH]c(=O)[nH]1 [Uracil, uracil, reference compound]
reactivity with the mutants (phosphoribosyltransferase activity) (mutants TgUPRT): reactivity of uracil for all five mutants was observed

C=Cc1cn([C@@H]2O[C@H](CO)[C@@H](O)[C@H]2O)c(=O)[nH]c1=O [5-vinyluridine, reference compound]
incorporation into brain RNA, UPRT(+)-microglia transplanted (UPRT(+)-microglia brains): incorporated into brain RNA; also recorded: incorporation

O=c1[nH]c(=S)ccn1[C@@H]1O[C@H](CO)[C@@H](O)[C@H]1O [4-thiouridine, reference compound]
incorporation into cellular RNA with UMPS overexpression [1]: incorporation
